The source of these data is BindingDB's records for doi:10.1021/jm00016a009 (Purdue University, 1995).

SMILES strings stand for the structures.

The EC50 is the midpoint of the concentration-response curve. The low end stands for an effect from little substance, the high end for a need for much substance.

This assay can be described thus: Effective concentration as Adenylate cyclase activity was measured in rat homogenate.

Regarding `Cc1cccc2c1CN[C@@H]1CCc3cc(O)c(O)cc3[C@@H]21` [(6aR,12bS)-4-Methyl-5,6,6a,7,8,12b-hexahydro-benzo[a]phenanthridine-10,11-diol], a half-maximal effect (EC50) was put at 0.151 µM.
To `Oc1ccc2c(c1)[C@@H]1c3cc(O)c(O)cc3CC[C@H]1NC2` [(6aR,12bS)-5,6,6a,7,8,12b-Hexahydro-benzo[a]phenanthridine-2,10,11-triol] belongs 0.148 µM; to `CCc1ccc2c(c1)[C@@H]1c3cc(O)c(O)cc3CC[C@H]1NC2` [(6aR,12bS)-2-Ethyl-5,6,6a,7,8,12b-hexahydro-benzo[a]phenanthridine-10,11-diol], 0.61 µM; to `CCCN1Cc2cc(C)ccc2[C@@H]2c3cc(O)c(O)cc3CC[C@H]21` [(6aR,12bS)-3-Methyl-6-propyl-5,6,6a,7,8,12b-hexahydro-benzo[a]phenanthridine-10,11-diol], 0.01 µM.
In the case of `Oc1ccc2c(c1)CN[C@@H]1CCc3cc(O)c(O)cc3[C@@H]21` [(6aR,12bS)-5,6,6a,7,8,12b-Hexahydro-benzo[a]phenanthridine-3,10,11-triol] it was 0.13 µM.
To `Cc1ccc2c(c1)CN[C@@H]1CCc3cc(O)c(O)cc3[C@@H]21` [(6aR,12bS)-3-Methyl-5,6,6a,7,8,12b-hexahydro-benzo[a]phenanthridine-10,11-diol] belongs 0.134 µM.
Turning to `Oc1cc2c(cc1O)[C@H]1c3cc(-c4ccccc4)ccc3CN[C@@H]1CC2` [(6aR,12bS)-2-Phenyl-5,6,6a,7,8,12b-hexahydro-benzo[a]phenanthridine-10,11-diol], the EC50 came out at 0.01 µM.
